The subject of assay [1] is batrachotoxin (BTX) binding site of the sodium channel. The assay is described as follows: Affinity to the batrachotoxin (BTX) binding site of the sodium channel. The note with it: rat cerebrocortex synaptosomes, [3H]-batrachotoxinin A20 α-benzoate 10 nM; test concentration not given.
The next assay has as its target T1, 5-HT transporter (Rattus norvegicus, UniProt P31652).
T1 construct: from tissue; host or cells: rat brain synaptosomes (marrow/medulla and pons), P2 fraction
The experiment in a line: Inhibition of 5-HT uptake in synaptosomes. The assay is classed as biochemical. To be noted: for inhibition at 1 µM: read-out: Uptake_5-HT, rat, 1 μM, % inhibition.

T1 sequence (P31652 whole entry): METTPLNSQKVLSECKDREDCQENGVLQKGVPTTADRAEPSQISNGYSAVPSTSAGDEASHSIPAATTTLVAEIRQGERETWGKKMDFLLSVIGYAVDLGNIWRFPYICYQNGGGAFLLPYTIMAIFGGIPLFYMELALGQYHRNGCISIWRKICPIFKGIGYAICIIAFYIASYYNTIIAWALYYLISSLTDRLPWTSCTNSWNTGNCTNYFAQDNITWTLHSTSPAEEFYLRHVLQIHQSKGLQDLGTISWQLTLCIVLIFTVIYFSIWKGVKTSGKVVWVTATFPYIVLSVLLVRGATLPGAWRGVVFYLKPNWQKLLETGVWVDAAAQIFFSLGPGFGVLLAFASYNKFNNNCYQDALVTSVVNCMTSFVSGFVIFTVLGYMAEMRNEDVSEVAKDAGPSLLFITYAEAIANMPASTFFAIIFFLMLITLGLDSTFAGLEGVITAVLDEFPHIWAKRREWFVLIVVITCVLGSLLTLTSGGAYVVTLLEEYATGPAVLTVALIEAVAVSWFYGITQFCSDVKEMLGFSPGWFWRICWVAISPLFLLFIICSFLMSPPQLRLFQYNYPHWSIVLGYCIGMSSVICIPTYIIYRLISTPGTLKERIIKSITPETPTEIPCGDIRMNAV

For the compound `CCCCOc1ccc(S(=O)(=O)N2CCC3(CC2)NCC(=O)N3Cc2ccccc2C#N)cc1` [Example 5, 2-[8-(4-Butoxy-benzolsulfonyl)-2-oxo-1,4,8-triazaspiro[4,5]dec-1-ylmethyl]-benzonitrile], the “BTX Inhibition” value in assay [1] was determined as 59. In addition, the “Uptake_5-HT, rat, 1 μM, % inhibition” value at 5-HT transporter is 30%.

Take `CCC(C)(C)c1ccc(S(=O)(=O)N2CCC3(CC2)NCC(=O)N3Cc2ccccc2C#N)cc1` [Example 6, 2-{8-[4-(1,1-Dimethylpropyl)benzolesulfonyl]-2-oxo-1,4,8-triazaspiro[4,5]dec-1-ylmethyl}-benzonitrile]: in assay [1], the “BTX Inhibition” value is given as 56. The “Uptake_5-HT, rat, 1 μM, % inhibition” value on 5-HT transporter worked out at 57%.

As to `Cc1cc(C)c(S(=O)(=O)N2CCC3(CC2)NC(C(C)C)C(=O)N3Cc2ccccc2)c(C)c1` (stereo not shown) [Example 14, 1-Benzyl-3-isopropyl-8-(2,4,6-trimethylbenzolsulfonyl)-1,4,8-triazaspiro[4,5]decan-2-one], in assay [1], the “BTX Inhibition” value was 68. The “Uptake_5-HT, rat, 1 μM, % inhibition” value on 5-HT transporter is on record as 61%.

`CCCCN1C(=O)C(CCSC)NC12CCN(S(=O)(=O)c1cccc(C)c1)CC2` (stereo not shown) [Example 18, 1-Butyl-3-(2-methylsulfanylethyl)-8-(toluol-3-sulfonyl)-1,4,8-triazaspiro[4,5]decan-2-one]: the “BTX Inhibition” value in assay [1] was found to be 32. The “Uptake_5-HT, rat, 1 μM, % inhibition” value at 5-HT transporter is listed as 68%.

With `CCCCN1C(=O)C(Cc2ccccc2)NC12CCN(S(=O)(=O)c1ccccc1C(F)(F)F)CC2` (stereo not shown) [Example 22, 3-Benzyl-1-butyl-8-(2-trifluoromethylbenzolsulfonyl)-1,4,8-triazaspiro[4,5]decan-2-one], the “BTX Inhibition” value in assay [1] was 38. Moreover, the “Uptake_5-HT, rat, 1 μM, % inhibition” value at 5-HT transporter stood at 66%.

By inhibition is commonly meant the share of the control response that was lost under treatment. With `COC(=O)c1ccccc1S(=O)(=O)N1CCC2(CC1)NC(CCSC)C(=O)N2Cc1ccc(F)cc1` (stereo not shown) [Example 23, Methyl 2-[1-(4-fluorobenzyl)-3-(2-methylsulfanylethyl)-2-oxo-1,4,8-triazaspiro[4,5]decan-8-sulfonyl]-benzoate], the “BTX Inhibition” value in assay [1] was found to be 40. In addition, the inhibition at 1 µM at 5-HT transporter stood at 69%.

On to `CSCCC1NC2(CCN(S(=O)(=O)c3ccccc3C(F)(F)F)CC2)N(Cc2ccc(F)cc2)C1=O` (stereo not shown) [Example 25, 1-(4-Fluorobenzyl)-3-(2-methylsulfanylethyl)-8-(2-trifluoromethylbenzolsulfonyl)-1,4,8-triazaspiro[4,5]decan-2-one], for which the “BTX Inhibition” value in assay [1] was 57. Also, the “Uptake_5-HT, rat, 1 μM, % inhibition” value at 5-HT transporter was determined as 58%.

As to `CSCCC1NC2(CCN(S(=O)(=O)c3cc(C)c(Cl)cc3C)CC2)N(Cc2ccc(F)cc2)C1=O` (stereo not shown) [Example 26, 8-(4-Chloro-2,5-dimethylbenzolsulfonyl)-1-(4-fluorobenzyl)-3-(2-methylsulfanylethyl)-1,4,8-triazaspiro[4,5]decan-2-one], the “BTX Inhibition” value in assay [1] worked out at 38. Also, the “Uptake_5-HT, rat, 1 μM, % inhibition” value at 5-HT transporter turned out to be 68%.

As for `CCCCN1C(=O)C(CCSC)NC12CCN(S(=O)(=O)c1ccc(OC)c(OC)c1)CC2` (stereo not shown) [Example 30, 1-Butyl-8-(3,4-dimethoxy-benzolsulfonyl)-3-(2-methylsulfanylethyl)-1,4,8-triazaspiro[4,5]decan-2-one], on 5-HT transporter, the “Uptake_5-HT, rat, 1 μM, % inhibition” value turned out to be 53%.

As for `CCS(=O)(=O)N1CCC2(CC1)NC(CCSC)C(=O)N2Cc1ccccc1` (stereo not shown) [Example 32, 1-Benzyl-8-ethanesulfonyl-3-(2-methylsulfanylethyl)-1,4,8-triazaspiro[4,5]decan-2-one], the inhibition at 1 µM at 5-HT transporter came to 64%.

With `COC(=O)c1ccccc1S(=O)(=O)N1CCC2(CC1)NC(CCSC)C(=O)N2Cc1ccccc1C#N` (stereo not shown) [Example 38, Methyl 2-[1-(2-cyanobenzyl)-3-(2-methylsulfanylethyl)-2-oxo-1,4,8-triazaspiro[4,5]decan-8-sulfonyl]-benzoate], the inhibition at 1 µM on 5-HT transporter was 40%.

Turning to `CN1C(=O)C(Cc2ccccc2)NC12CCN(S(=O)(=O)c1cccc(Cl)c1)CC2` (stereo not shown) [Example 40, 3-Benzyl-8-(3-chlorobenzolsulfonyl)-1-methyl-1,4,8-triazaspiro[4,5]decan-2-one], the “Uptake_5-HT, rat, 1 μM, % inhibition” value on 5-HT transporter worked out at 57%.

Consider `CCC(C)(C)c1ccc(S(=O)(=O)N2CCC3(CC2)NC(CCSC)C(=O)N3Cc2ccccc2)cc1` (stereo not shown) [Example 41, 1-Benzyl-8-[4-(1,1-dimethylpropyl)benzolesulfonyl]-3-(2-methylsulfanylethyl)-1,4,8-triazaspiro[4,5]decan-2-one], for which the “Uptake_5-HT, rat, 1 μM, % inhibition” value on 5-HT transporter was 56%.

With `CC(C)C1NC2(CCN(S(=O)(=O)c3ccc([N+](=O)[O-])cc3)CC2)N(Cc2cccc(C#N)c2)C1=O` (stereo not shown) [Example 52, 3-[3-Isopropyl-8-(4-nitrobenzolsulfonyl)-2-oxo-1,4,8-triazaspiro[4,5]dec-1-ylmethyl]-benzonitrile], the “Uptake_5-HT, rat, 1 μM, % inhibition” value on 5-HT transporter is given as 53%.

Consider `CN(C)S(=O)(=O)N1CCC2(CC1)NCC(=O)N2Cc1ccccc1F` [Example 55, 1-(2-Fluorobenzyl)-2-oxo-1,4,8-triazaspiro[4,5]decan-8-sulfonic acid dimethylamide], for which the inhibition at 1 µM on 5-HT transporter was 57%.

Consider `C=CCN1C(=O)C(CCSC)NC12CCN(S(=O)(=O)Cc1ccccc1)CC2` (stereo not shown) [Example 58, 1-Allyl-3-(2-methylsulfanylethyl)-8-benzolmethansulfonyl-1,4,8-triazaspiro[4,5]decan-2-one], for which the “Uptake_5-HT, rat, 1 μM, % inhibition” value on 5-HT transporter was determined as 56%.

For the compound `CCCCS(=O)(=O)N1CCC2(CC1)NC(Cc1ccccc1)C(=O)N2CC(=O)OCC` (stereo not shown) [Example 62, Ethyl[3-benzyl-8-(butan-1-sulfonyl)-2-oxo-1,4,8-triazaspiro[4,5]dec-1-yl]-acetate], the inhibition at 1 µM at 5-HT transporter was 70%.

With `CC(C)NC(=S)N1CCC2(CC1)NC(=O)C(Cc1ccccc1)N2` (stereo not shown) [Example 103, 2-Benzyl-3-oxo-1,4,8-triazaspiro[4,5]decan-8-thiocarboxylic acid isopropylamide], the inhibition at 1 µM at 5-HT transporter was 41%.

On to `C=CCN1C(=O)C(C(C)C)NC12CCN(C(=S)Nc1ccc(F)cc1)CC2` (stereo not shown) [Example 125, 1-Allyl-3-isopropyl-2-oxo-1,4,8-triazaspiro[4,5]decan-8-thiocarboxylic acid (4-fluorobenzol)amide], for which, on 5-HT transporter, the “Uptake_5-HT, rat, 1 μM, % inhibition” value is 34%.

As for `CCOC(=O)CN1C(=O)C(Cc2ccccc2)NC12CCN(C(=S)NC(=O)OCC)CC2` (stereo not shown) [Example 144, Ethyl(3-benzyl-8-ethoxycarbonylaminocarbothioyl-2-oxo-1,4,8-triazaspiro[4,5]dec-1-yl)acetate], the inhibition at 1 µM on 5-HT transporter was 47%.

As to `C=CCN1C(=O)C(C(C)C)NC12CCN(C(=S)Nc1c(F)c(F)c(F)c(F)c1F)CC2` (stereo not shown) [Example 149, 1-Allyl-3-isopropyl-2-oxo-1,4,8-triazaspiro[4,5]decan-8-thiocarboxylic acid pentafluorobenzolamide-amide], the “Uptake_5-HT, rat, 1 μM, % inhibition” value at 5-HT transporter was determined as 55%.

`CSCCC1NC2(CCN(C(=S)NC(C)C)CC2)N(Cc2ccc(F)cc2)C1=O` (stereo not shown) [Example 176, 1-(4-Fluorobenzyl)-3-(2-methylsulfanylethyl)-2-oxo-1,4,8-triazaspiro[4,5]decan-8-thiocarboxylic acid isopropylamide]: the inhibition at 1 µM at 5-HT transporter came out at 32%.

For `CSCCC1NC2(CCN(C(=O)Nc3cccc(F)c3)CC2)N(Cc2ccccc2C#N)C1=O` (stereo not shown) [Example 226, 1-(2-Cyanobenzyl)-3-(2-methylsulfanylethyl)-2-oxo-1,4,8-triazaspiro[4,5]decan-8-carboxylic acid (3-fluorobenzol)amide], the “Uptake_5-HT, rat, 1 μM, % inhibition” value on 5-HT transporter was 55%.
